Data as given in paper PMC4335020, “Single Oral Dose Pharmacokinetics of Decursin and Decursinol Angelate in Healthy Adult Men and Women” (PLoS ONE, 2015).
Like-named read-outs stand apart in the source and are kept apart here.

Experiment: Single oral dose human plasma pharmacokinetics of D, DA and DOH after Cogni.Q
Format: in vivo
Excerpt: Ten healthy male and 10 female subjects were recruited by public announcement in Amarillo, TX, from January 2013 to April 2013 (see Fig. 1 CONSORT diagram). The sample size for each gender was chosen without power calculation due to the lack of prior knowledge of PK parameter variance in humans. After receiving informed consent verbally and in writing, the health status of each candidate was confirmed by health questionnaire, plasma biochemistry (hepatic and renal functions), complete blood cell count (CBC), and a physical examination by a participating academic physician. Subjects with diabetes, or pregnant, perinatal and breastfeeding women were excluded. For the 48 hours preceding study visit until the final blood draw, all subjects were instructed to avoid taking any prescription or nonprescription drugs, vitamins, and herbal/dietary supplements. Each subject was compensated for participating in the study per TTUHSC IRB approved rate.
Eligible subjects arrived at our clinical facility at 0700 (7:00 am) on the test day after a fast beginning at 2200 (10:00 pm) the previous night. After a brief review of vital signs, the nurse placed an intravenous (IV) line with saline drip in one arm of each subject. A baseline pre-dose (hour 0) blood sample was drawn through the IV line; after that subjects swallowed four Cogni.Q vegicaps with 240 mL of water at hour 0 under direct supervision. Subjects stayed at the clinical facility in their room for the next 12 hours, returning at 24 and 48 hours. Blood was drawn at baseline (hour 0) and at 0.5, 1, 2, 3, 4, 6, 8, 12, 24 and 48 hours after dosing into Vacutainer Blood Collection Tube (Becton-Dickinson, Franklin Lakes, NJ. Product Number: 367874, Sodium heparin was used as anti-coagulant). Water was allowed as desired except for within the first hour after Cogni.Q consumption. All subjects received standardized meals at post-dose hours 4.5 and 9.5 but no food was allowed for at least the first 4 hours post-dose.
Plasma was prepared by centrifuging the heparinized blood at 1000 g for 15 minutes at room temperature. Urine samples (40mL) were collected within time spans of 0–4, 4–8, 8–12 and 12–24 hours (total volume of urine was recorded). All plasma and urine samples were put on dry ice immediately and then stored at -80°C freezer until analysis.
Plasma samples were extracted with a validated solid supported liquid extraction (SLE) method facilitated with a positive pressure manifold (Biotage, Charlotte, NC). Briefly, 100 μL of plasma sample was spiked with 5 μL of 10 ng/μL prednisolone (IS), diluted with 200 μL of LC-MS grade water, mixed and loaded onto ISOLUTE SLE+ 400 μL Array Well cartridges (Biotage, Charlotte, NC). A pulse of minimum positive pressure was applied to facilitate the samples absorption into the cartridges. After the samples were allowed to absorb for 5 min, the compounds were eluted with 2×500 μL tert-butyl methyl ether. The eluent was dried in a Speedvac and the resulting residue was reconstituted in 50 μL of methanol for UHPLC-MS/MS analysis.
Eight-point calibration curves were constructed for D, DA and DOH, at concentrations of 0.1, 0.5, 1, 5, 10, 20, 50 and 100 μg/L for D and DA, and at concentrations of 1, 5, 10, 50, 100, 200, 500 and 1000 μg/L for DOH, respectively. The linear range was 0.1–100 μg/L (0.3–300 nmol/L), 0.1–100 μg/L (0.3–300 nmol/L) and 1–1000 μg/L (4–4000 nmol/L) for D, DA and DOH, respectively. The inter- and intra-assay CV were lower than 6.5% and the accuracy was between 90–105%. Calibration curve was run for each batch of samples analyzed. The mean calibration curve correlation coefficient (r) for D, DA and DOH was 0.999, 0.999 and 0.998, respectively (data from 7–10 calibration curves). In addition, 70% of the plasma samples were extracted and analyzed twice, the data from two replicate analyses were nearly identical and combined for final data analyses and presentation. […]

## CC(C)=CC(=O)O[C@H]1Cc2cc3ccc(=O)oc3cc2OC1(C)C [D, decursin]
Both sexes, human, plasma, oral, 4 Cogni.Q vegicaps, n=20 (S1 Table), read-out: Cmax, nM, Grand Mean
  Cmax: 5.3 nM
Both sexes, human, plasma, oral, 4 Cogni.Q vegicaps, n=20 (S1 Table), read-out: Tmax, h, Grand Mean
  Tmax: 2.1 h
Both sexes, human, plasma, oral, all subjects, outliers excluded (S1 Table), read-out: Terminal t1/2, h, Grand Mean (converted)
  half-life: 17.4 h
Both sexes, human, plasma, oral, n=20 (S1 Table), read-out: AUC0-48h, Grand Mean
  AUC(0-t): 37.1 nmol·h/L
Both sexes, human, plasma, po, all human subjects n = 20, single oral dose Cogni.Q, plasma (Table 2), read-out: AUC0–48h, nmol/L, Mean (SD)
  AUC(0-t): 37.1 nmol·h/L
Both sexes, human, twenty healthy subjects, single oral dose Cogni.Q, plasma (abstract), read-out: mean area under the curve (AUC0-48h)
  AUC(0-t): 37 nmol·h/L
Both sexes, all human subjects n = 20, single oral dose 4 Cogni.Q vegicaps (119 mg D, 77 mg DA), plasma, read-out: Tmax, h, Mean (SD)
  Tmax: 2.1 h
Both sexes, all human subjects, four outlier subjects excluded, single oral dose Cogni.Q, plasma, read-out: Terminal t1/2, h, Mean (SD) (converted)
  half-life: 17.4 h
female, human, plasma, oral, 4 Cogni.Q vegicaps, Women n=10 (S1 Table), read-out: AUC0-48h, Mean, F
  AUC(0-t): 45.7 nmol·h/L
female, human, plasma, oral, 4 Cogni.Q vegicaps, Women n=10 (S1 Table), read-out: Cmax, nM, Mean, F
  Cmax: 5.37 nM
female, human, plasma, oral, Women n=10 (S1 Table), read-out: Tmax, h, Mean, F
  Tmax: 2.4 h
female, human, plasma, oral, Women, outliers excluded (S1 Table), read-out: Terminal t1/2, h, Mean, F (converted)
  half-life: 17 h
female, human, plasma, po, Women N = 10, single oral dose Cogni.Q, plasma, read-out: AUC0–48h, h.nmol/L Mean (SD)
  AUC(0-t): 45.7 nmol·h/L
female, human, plasma, po, Women N = 10, single oral dose Cogni.Q, plasma, read-out: Cmax, nmol/L, Mean (SD)
  Cmax: 5.4 nM
female, human, plasma, po, Women N = 10, single oral dose Cogni.Q, plasma, read-out: Tmax, h, Mean (SD)
  Tmax: 2.4 h
female, human, plasma, po, Women, outlier subjects excluded, single oral dose Cogni.Q, plasma, read-out: T1/2, h, terminal Mean (SD) (converted)
  half-life: 17 h
human, plasma, oral, 4 Cogni.Q vegicaps, subject S1 (115 lb), outlier, excluded from means, read-out: Terminal t1/2, h (converted)
  half-life: 173 h
human, plasma, oral, 4 Cogni.Q vegicaps, subject S1 (115 lb), read-out: AUC0-48h
  AUC(0-t): 45 nmol·h/L
human, plasma, oral, 4 Cogni.Q vegicaps, subject S1 (115 lb), read-out: Cmax
  Cmax: 4.7 nM
human, plasma, oral, 4 Cogni.Q vegicaps, subject S1 (115 lb), read-out: Tmax
  Tmax: 1 h
human, plasma, oral, 4 Cogni.Q vegicaps, subject S2 (194 lb), read-out: AUC0-48h
  AUC(0-t): 14.8 nmol·h/L
human, plasma, oral, 4 Cogni.Q vegicaps, subject S2 (194 lb), read-out: Cmax
  Cmax: 2 nM
human, plasma, oral, 4 Cogni.Q vegicaps, subject S2 (194 lb), read-out: Terminal t1/2, h (converted)
  half-life: 16.9 h
human, plasma, oral, 4 Cogni.Q vegicaps, subject S2 (194 lb), read-out: Tmax
  Tmax: 2 h
human, plasma, oral, 4 Cogni.Q vegicaps, subject S3 (170 lb), outlier, excluded from means, read-out: Terminal t1/2, h (converted)
  half-life: 69.6 h
human, plasma, oral, 4 Cogni.Q vegicaps, subject S3 (170 lb), read-out: AUC0-48h
  AUC(0-t): 9.8 nmol·h/L
human, plasma, oral, 4 Cogni.Q vegicaps, subject S3 (170 lb), read-out: Cmax
  Cmax: 1.6 nM
human, plasma, oral, 4 Cogni.Q vegicaps, subject S3 (170 lb), read-out: Tmax
  Tmax: 4 h
human, plasma, oral, 4 Cogni.Q vegicaps, subject S4 (170 lb), read-out: AUC0-48h
  AUC(0-t): 119 nmol·h/L
human, plasma, oral, 4 Cogni.Q vegicaps, subject S4 (170 lb), read-out: Cmax
  Cmax: 13.2 nM
human, plasma, oral, 4 Cogni.Q vegicaps, subject S4 (170 lb), read-out: Terminal t1/2, h (converted)
  half-life: 10.8 h
human, plasma, oral, 4 Cogni.Q vegicaps, subject S4 (170 lb), read-out: Tmax
  Tmax: 2 h
human, plasma, oral, 4 Cogni.Q vegicaps, subject S5 (161 lb), read-out: AUC0-48h
  AUC(0-t): 34.3 nmol·h/L
human, plasma, oral, 4 Cogni.Q vegicaps, subject S5 (161 lb), read-out: Cmax
  Cmax: 2 nM
human, plasma, oral, 4 Cogni.Q vegicaps, subject S5 (161 lb), read-out: Terminal t1/2, h (converted)
  half-life: 22.8 h
human, plasma, oral, 4 Cogni.Q vegicaps, subject S5 (161 lb), read-out: Tmax
  Tmax: 1 h
human, plasma, oral, 4 Cogni.Q vegicaps, subject S6 (120 lb), read-out: AUC0-48h
  AUC(0-t): 94 nmol·h/L
human, plasma, oral, 4 Cogni.Q vegicaps, subject S6 (120 lb), read-out: Cmax
  Cmax: 13.4 nM
human, plasma, oral, 4 Cogni.Q vegicaps, subject S6 (120 lb), read-out: Terminal t1/2, h (converted)
  half-life: 12.8 h
human, plasma, oral, 4 Cogni.Q vegicaps, subject S6 (120 lb), read-out: Tmax
  Tmax: 3 h
human, plasma, oral, 4 Cogni.Q vegicaps, subject S7 (180 lb), read-out: AUC0-48h
  AUC(0-t): 23.3 nmol·h/L
human, plasma, oral, 4 Cogni.Q vegicaps, subject S7 (180 lb), read-out: Cmax
  Cmax: 3.6 nM
human, plasma, oral, 4 Cogni.Q vegicaps, subject S7 (180 lb), read-out: Terminal t1/2, h (converted)
  half-life: 24.7 h
human, plasma, oral, 4 Cogni.Q vegicaps, subject S7 (180 lb), read-out: Tmax
  Tmax: 4 h
human, plasma, oral, 4 Cogni.Q vegicaps, subject S8 (160 lb), read-out: AUC0-48h
  AUC(0-t): 79.2 nmol·h/L
human, plasma, oral, 4 Cogni.Q vegicaps, subject S8 (160 lb), read-out: Cmax
  Cmax: 9.6 nM
human, plasma, oral, 4 Cogni.Q vegicaps, subject S8 (160 lb), read-out: Terminal t1/2, h (converted)
  half-life: 9.9 h
human, plasma, oral, 4 Cogni.Q vegicaps, subject S8 (160 lb), read-out: Tmax
  Tmax: 3 h
human, plasma, oral, 4 Cogni.Q vegicaps, subject S9 (158 lb), read-out: AUC0-48h
  AUC(0-t): 20.6 nmol·h/L
human, plasma, oral, 4 Cogni.Q vegicaps, subject S9 (158 lb), read-out: Cmax
  Cmax: 2.4 nM
human, plasma, oral, 4 Cogni.Q vegicaps, subject S9 (158 lb), read-out: Terminal t1/2, h (converted)
  half-life: 24 h
human, plasma, oral, 4 Cogni.Q vegicaps, subject S9 (158 lb), read-out: Tmax
  Tmax: 1 h
